Several values for one entry are separate records, joined by “and”; a condition that tells them apart may be missing. Equal entries are not always repeated.
Assays:
Type in all cases: in vivo
[1] = tested on: Soybean; assay: Soybean Trial 1, pot trial, foliar spray at V2-V3; settings: soybean; for Final Seed Yield at Harvest (g per pot): one plant per pot; for Rooting (0-9) + 28 Days: score 0-9, 28 days after spraying; for Final Seed Yield + % / No of Large Pod Bearing Branches/Plant + % / Plant Biomass Score + % / Rooting + %: increase over the line given as 0 (untreated or growth regulator alone)
[2] = tested on: Navy bean cv Primel; assay: Navy bean Trial 2, pot trial, foliar spray at V2-V3; settings: navy bean; for Final Seed Yield at Harvest (g per pot): one plant per pot; for Rooting (0-9) + 28 Days: score 0-9, 28 days after spraying; for Final Seed Yield + % / No of Large Pod Bearing Branches/Plant + % / Plant Biomass Score + % / Rooting + %: increase over the line given as 0 (untreated or growth regulator alone)
[3] = tested on: Winter wheat cv Limerick; assay: Winter wheat Trial 3, pot trial, sprayed at GS23; settings: for Total No of Shoots/Plant at GS33 / Total No of “Large” Shoots/Plant at GS33 / Rooting (0-9) + 28 Days / Final Seed Yield + % / Rooting + % / Total No of Shoots/Plant + % / Total No of “Large” Shoots/Plant + %: winter wheat pots; for Rooting (0-9) + 28 Days: score 0-9, 28 days after spraying; for Final Seed Yield + % / Rooting + % / Total No of Shoots/Plant + % / Total No of “Large” Shoots/Plant + %: increase over the line given as 0 (untreated or growth regulator alone); for Final Seed Yield at Harvest (g per pot): winter wheat, eight plants per pot
Method: The applied concentration of chemical can vary widely depending on the water volume applied to plants as well as other factors such as plant age and size, and plant sensitivity to the product. […] The rate of other components such as spreaders and stickers can be 50-200 ml per ha. C. […] Sprayed: 10 June, at GS23 (early-mid tillering). Plants were scored/assessed at GS33 on 12 July, with other measurements at crop maturity.

[4] = tested on: Winter wheat; assay: Winter wheat Trial 4, field trial, mean of nine varieties
Text: (§1) The applied concentration of chemical can vary widely depending on the water volume applied to plants as well as other factors such as plant age and size, and plant sensitivity to the product. Typical rates of AN-related compounds would be 1-10 g/ha (preferably and as used in these trials, 1 g per hectare was applied), typical rates of acetaminophen or its derivatives would be 1-10 g/ha (preferably and as used in these trials, 3 g per hectare was applied). Typical rates of the agrochemically acceptable additive of the present invention would be 1-10 g/ha (preferably and as used in these trials, less than 3 g per hectare was applied). The rate of other components such as spreaders and stickers can be 50-200 ml per ha.
D. WINTER WHEAT TRIAL 4—Field trial, sown 18 Oct. 2007. Mean of Nine Varieties—mean values from varieties Solstice, Battalion, Duxford, Marksman, Gallant, Panorama, Qplus, Cassius, Alchemy. Location: Great Dunmow, Essex, UK, 2008. Seed rate 400 seeds/sq metre. Formulations applied mid-tillering (GS23), and assessed at GS33 and at maturity.

[5] = tested on: Winter barley; assay: Winter barley Trial 5, field trial, mean of nine varieties
Text: as §1
E. WINTER BARLEY TRIAL 5—Field trial, sown 14 Oct. 2007. Mean of Nine Varieties—mean values from varieties Pearl, Flagon, Cassata, Wintmalt, Saffron, Suzuka, Marcorel, Sequel, Volume. Location: Great Dunmow, Essex, UK, 2008. Seed rate 400 seeds/sq metre. Formulations applied mid-tillering (GS23), and assessed at GS33 and at maturity.

[6] = tested on: Winter wheat varieties; assay: Winter wheat varieties UK field trials, mean root weight per plant; settings: for Mean Root Weight Per Plant (g), individual replicate: GS33, individual replicates, listed as B.; for Mean Root Weight Per Plant (g), Mean: GS33, mean of replicates; for Increase in Mean Root Weight Per Plant: GS33, vs A. Control
Text: F. WINTER WHEAT VARIETIES—UK field trials. Formulations applied at mid-tillering and measured at third node stage (GS33).
(§2) Treatments compared: • A. Control vs • B. Chlormequat chloride (620 g/litre) applied at 1.0 litre in 250 litres water per hectare. • C. Anthranilic Acid (1 g/ha)+Acetaminophen (3 g/ha) in 250 litres water per hectare. • B.+C. Combination of B. and C. above, in 250 litres water per hectare.
Mean Root Weight Per Plant (g)—three winter wheat varieties: individual replicates and mean values. Mean root weight per plant (g) is a mean value from 10 median plants taken from a representative 20 plant sample per plot.

[7] = tested on: Winter barley varieties; assay: Winter barley varieties UK field trials, mean root weight per plant; settings: for Mean Root Weight Per Plant (g), individual replicate: GS33, individual replicates, listed as B.; for Mean Root Weight Per Plant (g), Mean: GS33, mean of replicates; for Increase in Mean Root Weight Per Plant: GS33, vs A. Control
Text: G. WINTER BARLEY VARIETIES—UK field trials. Formulations applied at mid-tillering and measured at third node stage (GS33).
as §2
Mean Root Weight Per Plant (g)—three winter barley varieties: individual replicates and mean values.

SMILES: C[N+](C)(C)CCCl [CCC, Chlormequat chloride]
- No of Large Pod Bearing Branches/Plant at Harvest [1]: 1.0
- Final Seed Yield at Harvest (g per pot) [1]: 36.0 g per pot
- Plant Biomass Score (0-9) at Harvest [1]: 6.0
- Rooting (0-9) + 28 Days [1]: 4.4
- Final Seed Yield + % [1]: 0%
- No of Large Pod Bearing Branches/Plant + % [1]: 0%
- Plant Biomass Score + % [1]: 0%
- Rooting + % [1]: 0%
- No of Large Pod Bearing Branches/Plant at Harvest [2]: 1.4
- Final Seed Yield at Harvest (g per pot) [2]: 55.6 g per pot
- Plant Biomass Score (0-9) at Harvest [2]: 5.4
- Rooting (0-9) + 28 Days [2]: 7.4
- Final Seed Yield + % [2]: 0%
- No of Large Pod Bearing Branches/Plant + % [2]: 0%
- Plant Biomass Score + % [2]: 0%
- Rooting + % [2]: 0%
- Total No of Shoots/Plant at GS33 [3]: 3.8
- Total No of “Large” Shoots/Plant at GS33 [3]: 2.6
- Rooting (0-9) + 28 Days [3]: 6.0
- Final Seed Yield + % [3]: 0%
- Rooting + % [3]: 0%
- Total No of Shoots/Plant + % [3]: 0%
- Total No of “Large” Shoots/Plant + % [3]: 0%
- Final Seed Yield at Harvest (g per pot) [3]: 36.4 g per pot
- Final Ear Wt (10 ears) ([4]; CCC 1.0 l/ha): 18.4 g
- Mean Root Diameter GS33 (cm) ([4]; GS33, CCC 1.0 l/ha): 2.51 cm
- Mean Root Length GS33 (cm) ([4]; GS33, CCC 1.0 l/ha): 2.40 cm
- Mean Root Weight GS33 ([4]; GS33, CCC 1.0 l/ha): 4.10 g
- No of “large” Stems GS33 ([4]; GS33, CCC 1.0 l/ha): 2.95
- Total Stem Number GS33 ([4]; GS33, CCC 1.0 l/ha): 4.40
- Mean % Lodged Maturity ([4]; at maturity, CCC 1.0 l/ha): 1.7%
- Final Ear Wt (10 ears) ([5]; CCC 1.0 l/ha): 22.8 g
- Mean Root Diameter GS33 (cm) ([5]; GS33, CCC 1.0 l/ha): 2.05 cm
- Mean Root Length GS33 (cm) ([5]; GS33, CCC 1.0 l/ha): 3.66 cm
- Mean Root Weight GS33 ([5]; GS33, CCC 1.0 l/ha): 3.06 g
- No of “large” Stems GS33 ([5]; GS33, CCC 1.0 l/ha): 4.23
- Total Stem Number GS33 ([5]; GS33, CCC 1.0 l/ha): 6.01
- Mean % Lodged Maturity ([5]; at maturity, CCC 1.0 l/ha): 26.3%
- Mean Root Weight Per Plant (g), individual replicate ([6]; winter wheat variety Battalion): 4.1 g and 4.3 g and 4.4 g and 4.2 g
- Mean Root Weight Per Plant (g), Mean ([6]; winter wheat variety Battalion): 4.25 g
- Increase in Mean Root Weight Per Plant ([6]; winter wheat variety Battalion): +1.12 g
- Mean Root Weight Per Plant (g), individual replicate ([6]; winter wheat variety Marksman): 4.3 g and 4.4 g (2×) and 4.5 g
- Mean Root Weight Per Plant (g), Mean ([6]; winter wheat variety Marksman): 4.40 g
- Increase in Mean Root Weight Per Plant ([6]; winter wheat variety Marksman): +1.10 g
- Mean Root Weight Per Plant (g), individual replicate ([6]; winter wheat variety Solstice): 3.6 g (2×) and 3.7 g and 3.8 g
- Mean Root Weight Per Plant (g), Mean ([6]; winter wheat variety Solstice): 3.68 g
- Increase in Mean Root Weight Per Plant ([6]; winter wheat variety Solstice): +0.9 g
- Mean Root Weight Per Plant (g), individual replicate ([7]; winter barley variety Flagon): 4.0 g (2×) and 3.9 g and 4.2 g
- Mean Root Weight Per Plant (g), Mean ([7]; winter barley variety Flagon): 4.03 g
- Increase in Mean Root Weight Per Plant ([7]; winter barley variety Flagon): +1.65 g
- Mean Root Weight Per Plant (g), individual replicate ([7]; winter barley variety Marcorel): 2.8 g (3×) and 2.9 g
- Mean Root Weight Per Plant (g), Mean ([7]; winter barley variety Marcorel): 2.83 g
- Increase in Mean Root Weight Per Plant ([7]; winter barley variety Marcorel): +0.85 g
- Mean Root Weight Per Plant (g), individual replicate ([7]; winter barley variety Suzuka): 4.0 g and 3.0 g (3×)
- Mean Root Weight Per Plant (g), Mean ([7]; winter barley variety Suzuka): 3.25 g
- Increase in Mean Root Weight Per Plant ([7]; winter barley variety Suzuka): +0.90 g

SMILES: CC1(C)CCC(Cc2ccc(Cl)cc2)C1(O)Cn1cncn1 (centres unmarked) [MET, Metconazole]
- No of Large Pod Bearing Branches/Plant at Harvest [1]: 1.1
- Final Seed Yield at Harvest (g per pot) [1]: 36.6 g per pot
- Plant Biomass Score (0-9) at Harvest [1]: 6.0
- Rooting (0-9) + 28 Days [1]: 5.2
- Final Seed Yield + % [1]: 0%
- No of Large Pod Bearing Branches/Plant + % [1]: 0%
- Plant Biomass Score + % [1]: 0%
- Rooting + % [1]: 0%
- No of Large Pod Bearing Branches/Plant at Harvest [2]: 1.2
- Final Seed Yield at Harvest (g per pot) [2]: 57.2 g per pot
- Plant Biomass Score (0-9) at Harvest [2]: 5.2
- Rooting (0-9) + 28 Days [2]: 7.0
- Final Seed Yield + % [2]: 0%
- No of Large Pod Bearing Branches/Plant + % [2]: 0%
- Plant Biomass Score + % [2]: 0%
- Rooting + % [2]: 0%
- Total No of Shoots/Plant at GS33 [3]: 3.8
- Total No of “Large” Shoots/Plant at GS33 [3]: 2.6
- Rooting (0-9) + 28 Days [3]: 6.0
- Final Seed Yield + % [3]: 0%
- Rooting + % [3]: 0%
- Total No of Shoots/Plant + % [3]: 0%
- Total No of “Large” Shoots/Plant + % [3]: 0%
- Final Seed Yield at Harvest (g per pot) [3]: 36.2 g per pot
